Measurements: publication PMC3048469 (FEBS letters, 2011)
Read-outs that look alike come from different tables or passages of the source.

Biological target: Rv1086 (Mycobacterium tuberculosis, UniProt P9WFF5)
Format: biochemical
Conditions: 5 mM MgCl2, pH 7.0, 37 °C

Sequence of Rv1086 (P9WFF5 whole entry): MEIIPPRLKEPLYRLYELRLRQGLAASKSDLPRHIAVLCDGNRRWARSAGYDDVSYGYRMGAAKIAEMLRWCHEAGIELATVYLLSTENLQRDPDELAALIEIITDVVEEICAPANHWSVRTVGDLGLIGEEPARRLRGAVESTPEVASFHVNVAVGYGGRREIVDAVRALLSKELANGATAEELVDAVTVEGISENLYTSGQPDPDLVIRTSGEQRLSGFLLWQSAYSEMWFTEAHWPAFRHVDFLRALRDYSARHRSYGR

Structure (SMILES) | GC-MS of dephosphorylated product (100 μM DMAPP, 100 μM IPP, 0.3% Triton X-100) | GC-MS of dephosphorylated product (100 μM GPP, co-substrate IPP)
CC(C)=CCOP(=O)(O)OP(=O)(O)O [DMAPP] | (Z,E)-FPP also was produced by Rv1086 from IPP and DMAPP in the absence of Rv0989 | 
CC(C)=CCC/C(C)=C/COP(=O)(O)OP(=O)(O)O [GPP] |  | Rv1086 assayed in the presence of authentic GPP, GPP synthesized by Rv0989c, or DMAPP
